From patent US20020156077A1, “Non-steroidal estrogen receptor ligands” (priority 2001, published 2002)
Where two headings read alike, the source gives them in different places.

Key:
MCF-7 cells = assay: MCF-7 cell proliferation assay (MTT), estradiol stimulated versus unstimulated; format: cell-based, human; conditions: FIGS. 1 and 2
Source text: Those skilled in the art will appreciate that several acceptable estrogen receptor-binding assays are known and available for initial screening of the compounds of the present invention. The initial screen chosen was a human cell line assay, namely the MCF-7 cell proliferation assay for detecting anti-estrogenic/estrogenic activity. The MCF-7 human breast cancer cell line has been used as an industry standard for the evaluation of estrogen receptor antagonists. MCF-7 cells are estrogen-receptor positive (ER+) cancer cells that respond to estradiol stimulation. Antiestrogenic activity is measured in terms of a test article's ability to inhibit estradiol stimulated proliferation, implying an antagonistic action on the estrogen receptor and estogenic activity can be inferred from increased proliferation. The following testing procedure was used.
MCF-7 cells were maintained in RPMI medium free of phenol red and supplemented with 5% charcoal-stripped foetal calf serum, hydrocortisone, bovine insulin, penicillin and streptomycin until they reached 70% confluence. […] Cell survival was evaluated after 3-6 days, by replacing the culture media with 150 μl of fresh medium containing 10 mM 4-(2-hydroxyethyl)-1-piperazineethamsulfonic acid buffer (pH 7.4) followed by addition of 50 μl of 2.5 mg/ml of 3-(4,5-dimethylthiazo-2-yl)-2,5-diphenyltetrazolium bromide (MTT). […]

[1] = tested on: tamoxifen-resistant breast cancers; conditions: tamoxifen-resistant breast cancer patients; cited from earlier work
[2] = target: T1, human recombinant estrogen receptor alpha (Homo sapiens, UniProt P03372); assay: Estrogen receptor alpha binding assay, displacement of [3H] Estradiol
T1 construct: purchased PanVera Corporation
T1 sequence (P03372 1-595): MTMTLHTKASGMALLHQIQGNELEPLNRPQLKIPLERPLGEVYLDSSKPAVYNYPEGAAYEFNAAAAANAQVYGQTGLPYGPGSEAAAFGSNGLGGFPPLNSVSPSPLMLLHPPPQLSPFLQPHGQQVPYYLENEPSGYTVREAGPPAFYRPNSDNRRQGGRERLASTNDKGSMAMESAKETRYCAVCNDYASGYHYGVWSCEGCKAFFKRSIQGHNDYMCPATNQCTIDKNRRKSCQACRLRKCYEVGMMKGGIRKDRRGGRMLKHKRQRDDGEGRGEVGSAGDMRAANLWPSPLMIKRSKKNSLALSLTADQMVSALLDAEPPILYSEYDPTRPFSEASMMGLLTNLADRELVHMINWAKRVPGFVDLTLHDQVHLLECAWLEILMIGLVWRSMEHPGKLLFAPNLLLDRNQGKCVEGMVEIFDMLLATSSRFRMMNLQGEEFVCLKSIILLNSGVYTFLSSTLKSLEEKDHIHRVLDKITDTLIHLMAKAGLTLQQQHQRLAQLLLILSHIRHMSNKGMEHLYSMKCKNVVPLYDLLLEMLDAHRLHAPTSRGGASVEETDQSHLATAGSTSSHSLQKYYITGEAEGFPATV
Procedure: (§1) The human estrogen receptor occurs in two subtypes, alpha and beta. The stable expression of these individual receptor subtypes in cells provides a rapid and accurate means of quantifying the direct interaction of a test article with the estrogen binding sites. Briefly, this assay is conducted in 96 well plates where a series of concentrations of test article are used to displace tritiated estradiol from either estrogen receptor alpha or estrogen receptor beta bearing cell membranes, under equilibrium conditions. […] This measurement is the primary test for mediation of the estrogen receptor and can also be used to measure the relative selectivity of the test article for either the alpha or beta subtype.
The alpha subtype assay measures the binding of [^3H] Estradiol to the human recombinant estrogen receptor. […] Briefly, after proper dilution, a 4.5 ng aliquot of receptor protein in modified Tris-HCL pH 7.5 buffer is incubated with 0.5 nM [^3H] Estradiol for 2 hours at 25° C. Non-specific binding is estimated in the presence of 1.0 μM diethylstilbestrol. Membranes are filtered and washed 3 times, and the filters are counted to determine [^3H] Estradiol specifically bound. Under the same conditions the receptor protein is incubated with varied concentrations of test article ranging from 1 nM to 1 μM and the displacement of [^3H] Estradiol is measured in duplicate. The measurement of the displaced tritiated estradiol allows the determination of an IC50 value, a direct measure of the test articles interaction with the estrogen receptor alpha.

[3] = target: human recombinant estrogen receptor beta (Homo sapiens, UniProt Q92731); assay: Estrogen receptor beta binding assay, displacement of [3H] Estradiol
Procedure: as §1
The beta subtype assay also allowed the determination of an IC50 value of the test article under the same conditions as for the alpha subtype assay with the exception that a 7.5 ng aliquot of receptor protein preparation was used.

[4] = 0.5 nM [3H] Estradiol, 2 hours at 25° C, 4.5 ng receptor protein, read-out: IC50 Value, ER Subtype Alpha
[5] = 0.5 nM [3H] Estradiol, 2 hours at 25° C, 7.5 ng receptor protein, read-out: IC50 Value, ER Subtype Beta

Chain of human recombinant estrogen receptor beta (Q92731 whole entry): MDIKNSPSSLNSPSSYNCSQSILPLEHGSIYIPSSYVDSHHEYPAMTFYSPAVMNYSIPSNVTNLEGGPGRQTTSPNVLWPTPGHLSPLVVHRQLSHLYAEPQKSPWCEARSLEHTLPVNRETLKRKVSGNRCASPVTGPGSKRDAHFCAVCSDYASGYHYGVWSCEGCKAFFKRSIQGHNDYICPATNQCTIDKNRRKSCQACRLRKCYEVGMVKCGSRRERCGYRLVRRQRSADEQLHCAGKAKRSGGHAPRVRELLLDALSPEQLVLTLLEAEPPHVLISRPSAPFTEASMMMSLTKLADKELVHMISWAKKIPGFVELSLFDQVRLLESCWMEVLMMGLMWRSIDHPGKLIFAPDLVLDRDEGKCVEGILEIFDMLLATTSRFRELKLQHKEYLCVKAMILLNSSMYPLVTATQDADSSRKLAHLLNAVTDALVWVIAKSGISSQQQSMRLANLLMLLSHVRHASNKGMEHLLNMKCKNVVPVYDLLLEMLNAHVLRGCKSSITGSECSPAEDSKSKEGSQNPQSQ

Row | Compound | effect on estradiol stimulated MCF-7 cell proliferation (shift of dose-response curves) (MCF-7 cells) | IC50 [2, 4] [nM] | IC50 [3, 5] [nM] | also measured
1 | CC(=O)c1ccc2c(c1)c(-c1ccc(OCCN3CCCCC3)cc1)cc1cc(O)cc(C)c12 [Formula 4, 1-[7-hydroxy-5-methyl-10-[4-(2-piperidin-1-yl-ethoxy)-phenyl]-phenanthren-2-yl]-ethanone] | antagonizing the effect of estradiol |  |  | 
2 | C[C@]12CC[C@@H]3c4ccc(O)cc4C[C@@H](CCCCCCCCC[S+]([O-])CCCC(F)(F)C(F)(F)F)[C@H]3[C@@H]1CC[C@@H]2O (stereo partly drawn) [ICI 182780] |  |  |  | tamoxifen-resistant patients who responded [1]: approximately two-thirds
3 | Cc1cc(O)cc2cc(-c3ccc(OCCN4CCCCC4)cc3)c3cc(C(=O)C(C)C)ccc3c12 [formula 3, 1-[7-hydroxy-5-methyl-10-[4-(2-piperidin-1-yl-ethoxy)-phenyl]-phenanthren-2-yl]-2-methyl-propan-1-one] | antagonizing the effect of estradiol | 39 | 120 | 
4 | C=C(C)c1ccc2c(c1)c(-c1ccc(OCCN3CCCCC3)cc1)cc1cc(O)cc(C)c12 [formula 5] |  | 32 |  | IC50 [3]: 20 nM
5 | CC(C)=C(C)c1ccc2c(c1)c(-c1ccc(OCCN3CCCCC3)cc1)cc1cc(O)cc(C)c12 [formula 6, 7-(1,2-dimethylpropenyl)-4-methyl-9-[4-(2-piperidin-1-yl-ethoxy)-phenyl]-phenanthren-2-ol] |  |  | 9 | IC50 [2]: 18 nM
